The text below walks through data of patent US20250375526A1, “IRAK DEGRADERS AND USES THEREOF” (Kymera Therapeutics, Inc., priority 2020, published 2025).

The IC50 is the concentration at which inhibition is half-maximal. The term DC50 denotes the concentration at which degradation of the target reaches its halfway point.

For assay [1], the system named is OCI-LY10 cells. In words: CellTiter-Glo Luminescent Cell Viability Assay. Type of assay: cell-based. Conditions: Homo sapiens, 96 h, incubated 4 days, read-out: OCI-LY10 CTG IC50. How it is done:
Compound-mediated viability effect on OCI-LY10 was quantitatively determined using the CellTiter-Glo® Luminescent Cell Viability Assay kit from Promega (Catalog number G7570) following manufacturer's recommended procedures. Briefly, OCI-LY10 cells were seeded into 384 well plates (Grenier Bio-One, Catalog number 781080) with a density of 10,000 cells per well. Compounds were then added to the assay plate with final top concentration of 10 μM and 1:3 dilution series with total of 9 doses. The final DMSO concentration was normalized to 0.2%. The assay plates were incubated at 37° C. for 4 days under 5% CO2. Then the assay plate was equilibrated at room temperature for 10 minutes. To determine cell viability, 30 μL CellTiter Glo reagent was added to each well and the assay plate was centrifuged at 1000 rpm for 30 second, incubated at room temperature for 10 min, and analyzed by detecting the luminescence using a multimode plate reader (EnVision 2105, PerkinElmer). The data was then analyzed by software Prism 7.0 from GraphPad and the dose response curves were fit using a three-parameter logistic equation to calculate IC50.
The letter codes for OCI-LY10 CTG IC50 include: A (<1 μM), B (1-10 μM), C (>10 μM).
In general terms: ATP-based viability assays read luminescence as a measure of living cells.

For assay [2], the target named is T1, IRAK4 (Homo sapiens, UniProt Q9NWZ3).
T1 construct: endogenous in cells; host or cells: OCI-Ly10
T1 sequence (Q9NWZ3 1-460): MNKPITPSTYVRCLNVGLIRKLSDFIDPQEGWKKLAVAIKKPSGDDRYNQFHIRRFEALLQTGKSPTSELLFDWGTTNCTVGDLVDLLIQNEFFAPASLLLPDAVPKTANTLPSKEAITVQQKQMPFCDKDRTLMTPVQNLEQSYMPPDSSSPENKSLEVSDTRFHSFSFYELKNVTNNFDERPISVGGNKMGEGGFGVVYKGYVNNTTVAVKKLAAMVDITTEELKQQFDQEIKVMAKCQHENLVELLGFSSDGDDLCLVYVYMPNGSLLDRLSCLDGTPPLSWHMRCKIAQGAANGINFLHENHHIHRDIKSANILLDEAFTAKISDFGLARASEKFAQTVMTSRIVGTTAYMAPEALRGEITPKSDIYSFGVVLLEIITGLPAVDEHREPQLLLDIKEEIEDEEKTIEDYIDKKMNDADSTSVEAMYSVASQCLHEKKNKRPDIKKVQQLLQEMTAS
In words: OCI-LY10 IRAK MSD assay DC50 (IRAK4 degradation). In kind it is cell-based. Conditions: OCI-Ly10 cells, incubated for 4 hr, concentration of compound required to degrade 50% of protein. How it is done: A MSD assay is run to determine the concentration of compound required to degrade 50% of protein (DC50).
• Compounds were reconstituted to 10 mM in stock solutions. The stock solutions were diluted to 5 mM and 45 μL of each dilution was transferred to a 384 pp-plate. A 3 fold, 8-point serial dilution was performed by transferring 15 μL of compound into 30 μL DMSO using Janus. • 20 nL of each compound were added into each well of a 96-well plate (Corning3799). • OCI-Ly10 cells were seeded into the 96-well plate at 3.0*10e^5 cells/100 μL/well. • The cell plate was shaken at 720 rpm for 5 min and incubated for 4 hr. • 100 μL of cells were transferred into the 96-PCR plate and spun down at high speed for 5 mins. • The supernatant was discarded and 100 μL of RIPA lysis buffer with proteinase inhibitors was added per well. The plate was then sealed and shaken at 600 rpm and 4° C. for about 20 min. • The plate was then spun down at high speed (about 3200 g) for 30 min and then frozen in a −80° C. fridge. • A bare MSD plate (L15XA-3) was coated with 2 μg/mL of capture antibody (mouse Anti-IRAK4 antibody [2H9], ab119942) in PBS to 40 μL/well and incubated overnight at 4° C.
• The MSD coated plate was washed 3× (150 μL/well) with 1×TBST (CST #9997S). • The MSD plate was then blocked with 150 μL of blocking buffer [3% Blocker A (MSD, R93BA-4) in TBST]/well and shaken for 1 hr at RT and 600 rpm. • The MSD plate was washed 3× (150 μL/well) with 1×TBST. The sample RIPA lysates were then added to the MSD plate (50 μL/well) and shaken for 1 hr at RT and 600 rpm. • The MSD plate was washed 3× (150 μL/well) with 1×TBST and the primary detection antibody (Rabbit Anti-IRAK4 antibody [Y279], ab32511) was added to a final concentration of 1 μg/ml with 25 μL/well. The plate was then shaken for 1 hr at RT and 600 rpm. • The MSD plate was washed 3× (150 μL/well) with 1×TBST and the secondary detection antibody, SULFO-TAG anti-species antibody (Anti Rabbit Antibody (R32AB-5) MSD, R32AB-1) was added to a volume of 25 μL/well at a final concentration of 1 μg/ml. The plate was then shaken for 1 hr at RT and 600 rpm. • The MSD plate was then washed 3× (150 μL/well) with 1×TBST. • 1×MSD reading buffer was then added (150 μL/well) and the plate […].
(MSD, R92TC-2) • The MSD instrument was then read.
The remaining activity was calculated following the formula below:
• The DC50 was calculated by fitting the Curve using Xlfit (v5.3.1.3), equation 201: […]
The letter codes for IRAK4 DC50 indicate the concentration of compound required to degrade 50% of protein: A (<0.01 μM), B (0.01-0.1 μM), C (>0.1-0.2 μM), D (>0.2 μM).

SMILES strings stand for the structures.

Turning to `O=C1CCN(c2cncc3cc(C#CCOC4CCN(C[C@H]5CC[C@H](n6cc(NC(=O)c7cnn8ccc(N9C[C@H]%10C[C@@H]9CO%10)nc78)c(C(F)F)n6)CC5)CC4)ccc23)C(=O)N1` [I-16], in assay [1], the IC50 was in the range of 1000 to 10000 nM. In addition, the DC50 in assay [2] was above 200 nM.

Take `CC(C)(O)c1cc2nn([C@H]3CC[C@H](CNCCOCCOCC#Cc4ccn5c(N6CCC(=O)NC6=O)cnc5c4)CC3)cc2cc1NC(=O)c1cccc(C(F)(F)F)n1` [I-34]: the IC50 in assay [1] was above 10000 nM. Also, the DC50 in assay [2] was 10 to 100 nM.

On to `COc1cc2nn([C@H]3CC[C@H](CN4CCC(c5cccn6c(N7CCC(=O)NC7=O)cnc56)CC4)CC3)cc2cc1NC(=O)c1cccc(C(F)(F)F)n1` [I-26], for which the IC50 in assay [1] was below 1000 nM. The same compound had a DC50 in assay [2] of 10 to 100 nM.

Turning to `CC(C)(O)c1cc2nn([C@H]3CC[C@H](CC4CCN(c5ccn6c(N7CCC(=O)NC7=O)cnc6c5)CC4)CC3)cc2cc1NC(=O)c1cccc(C(F)(F)F)n1` [I-2], in assay [1], the IC50 is 1000 to 10000 nM. This compound returned a DC50 in assay [2] below 10 nM.

Consider `O=C1CCN(c2cnc3c(C#CCOC4CCN(C[C@H]5CC[C@H](n6cc(NC(=O)c7cnn8ccc(N9C[C@H]%10C[C@@H]9CO%10)nc78)c(C(F)F)n6)CC5)CC4)cccn23)C(=O)N1` [I-24], for which the IC50 in assay [1] lay within 1000 to 10000 nM. In assay [2], this compound returned a DC50 below 10 nM.

For the compound `O=C1CCN(c2cnc3cc(C4CCN(C[C@H]5CC[C@H](n6cc7cc(NC(=O)c8cccc(C(F)(F)F)n8)ccc7n6)CC5)CC4)ccn23)C(=O)N1` [I-32], the IC50 in assay [1] is below 1000 nM. The compound also gave a DC50 in assay [2] above 200 nM.

Take `CC(C)(O)c1cc2nn([C@H]3CC[C@H](CN4CCC(c5cccn6c(N7CCC(=O)NC7=O)cnc56)CC4)CC3)cc2cc1NC(=O)c1cccc(C(F)(F)F)n1` [I-23]: in assay [1], the IC50 was 1000 to 10000 nM. The compound also showed a DC50 in assay [2] below 10 nM.

As for `CN(C[C@H]1CC[C@H](n2cc3cc(NC(=O)c4cccc(C(F)(F)F)n4)c(C(C)(C)O)cc3n2)CC1)C1CCN(c2ccn3c(N4CCC(=O)NC4=O)cnc3c2)CC1` [I-1], in assay [1], the IC50 fell in the range of 1000 to 10000 nM. This compound also came in with a 50% degradation concentration (DC50) in assay [2] below 10 nM.

Regarding `O=C1CCN(c2cncc3c(C#CCOC4CCN(C[C@H]5CC[C@H](n6cc(NC(=O)c7cnn8ccc(N9C[C@H]%10C[C@@H]9CO%10)nc78)c(C(F)F)n6)CC5)CC4)cccc23)C(=O)N1` [I-9], in assay [1], the IC50 is 1000 to 10000 nM. Moreover, in assay [2], the DC50 is below 10 nM.

As to `COc1cc2nn([C@H]3CC[C@H](CN(C)C4CCN(c5cccn6c(N7CCC(=O)NC7=O)cnc56)CC4)CC3)cc2cc1NC(=O)c1cccc(C(F)(F)F)n1` [I-25], the IC50 in assay [1] was below 1000 nM. Further, the DC50 in assay [2] is below 10 nM.

Take `CN(C[C@H]1CC[C@H](n2cc3cc(NC(=O)c4cccc(C(F)(F)F)n4)c(C(C)(C)O)cc3n2)CC1)C1CCN(c2cccn3c(N4CCC(=O)NC4=O)cnc23)CC1` [I-4]: the IC50 in assay [1] fell in the range of 1000 to 10000 nM. For the same compound, the DC50 in assay [2] was below 10 nM.

`COc1cc2nn([C@H]3CC[C@H](CN(C)C4CCN(c5ccn6c(N7CCC(=O)NC7=O)cnc6c5)CC4)CC3)cc2cc1NC(=O)c1cccc(C(F)(F)F)n1` [I-31]: in assay [1], the IC50 is below 1000 nM. In addition, the DC50 in assay [2] was below 10 nM.

As for `COc1cc2nn([C@H]3CC[C@H](CN4CCC(c5ccc6c(N7CCC(=O)NC7=O)cncc6c5)CC4)CC3)cc2cc1NC(=O)c1cccc(C(F)(F)F)n1` [I-17], in assay [1], the IC50 is below 1000 nM.

As for `O=C1CCN(c2cnc3cc(C#CCOC4CCN(C[C@H]5CC[C@H](n6cc(NC(=O)c7cnn8ccc(N9C[C@H]%10C[C@@H]9CO%10)nc78)c(C(F)F)n6)CC5)CC4)ccn23)C(=O)N1` [I-3], the IC50 in assay [1] lay in the range of 1000 to 10000 nM. Moreover, the 50% degradation concentration (DC50) in assay [2] was below 10 nM.
